Assay results published in PMC6630832, “3-Vinylazetidin-2-Ones: Synthesis, Antiproliferative and Tubulin Destabilizing Activity in MCF-7 and MDA-MB-231 Breast Cancer Cells” (Pharmaceuticals, 2019).
Read-outs that look alike come from different tables or passages of the source.

Key:
[1] = test system: Hs578T breast cancer cell line; assay: Antiproliferative activity in Hs578T cells; type: cell-based; settings: Homo sapiens, Hs-578T
K562 = assay: Antiproliferative activity in K562 leukemia cells; type: cell-based; settings: Homo sapiens
[2] = test system: normal murine mammary epithelial cells; assay: Cytotoxicity assay in primary murine mammary epithelial cells (alamar blue); type: cell-based, mouse; settings: for IC50: Mus musculus, Epithelial cell, alamar blue; for IC50 / % Viable cells at IC50: 72 h; for % Viable cells at IC50: at the compound's IC50 in MCF-7 cells, 25,000 cells/mL
Experimental: (§1) As previously reported mammary glands from 14–18 day pregnant CD-1 mice were used as source and primary mammary epithelial cell cultures were prepared from these. The isolated mammary epithelial cells were seeded at two concentrations (25,000 cells/mL and 50,000 cells/mL). […] After 24 h, the cells were treated with 2 µL volumes of test compound 7s which had been pre-prepared as stock solutions in ethanol to furnish the concentration range of study, 1 nM–100 µM, and re-incubated for a further 72 h. Control wells contained the equivalent volume of the vehicle ethanol (1% v/v). The cytotoxicity was assessed using alamar blue dye.

[3] = as above; type: cell-based, mouse; settings: female, CD-1, mouse, primary mammary epithelial cells, 72 h; for viability at 72 h, 10 μM: murine epithelial cells, read-out: % Viable cells; for viability at 72 h: at the compound's IC50 in MCF-7 cells, read-out: % Viable cells at IC50
Experimental: as §1

HL-60 = assay: Antiproliferative activity in HL-60 leukemia cells; type: cell-based; settings: Homo sapiens
Experimental: The human breast carcinoma cell line MCF-7, was purchased from the European Collection of Animal Cell Cultures (ECACC) and was cultured in Eagle’s minimum essential medium with 10% fetal bovine serum, 2 mM L-glutamine and 100 μg/mL penicillin/streptomycin. The medium was supplemented with 1% non-essential amino acids. The human breast carcinoma cell line MDA-MB-231 was purchased from the European Collection of Animal Cell Cultures (ECACC). MDA-MB-231 cells were maintained in Dulbecco’s modified Eagle’s medium (DMEM) supplemeted with 10% (v/v) fetal bovine serum, 2 mM L-glutamine and 100 μg/mL penicillin/streptomycin (complete medium). All media contained 100 U/mL penicillin and 100 μg/mL streptomycin. […]
Cells were seeded at a density of 5 × 10^3 cells/well (MCF-7), in triplicate in 96-well plates. […] Cell viability for MCF-7 and MDA-MB-231 was analysed using the Alamar Blue assay (Invitrogen Corp, Thermo Fisher Scientific, 168 Third Avenue, Waltham, MA, USA) according to the manufacturer’s instructions. […] Fluorescence was read using a 96-well fluorimeter with excitation at 530 nm and emission at 590 nm. Results were expressed as percentage viability relative to vehicle control (100%). […]

[4] = test system: microtubule network of MCF-7 cells; assay: Immunofluorescence microscopy; type: cell-based, human; settings: 100 nM, 16 h
Experimental: Confocal microscopy was used to study the effects of drug treatment on MCF-7 cytoskeleton. For immunofluorescence, MCF-7 cells were seeded at 1 × 10^5 cells/mL on eight chamber glass slides (BD Biosciences, 2350 Qume Dr, San Jose, CA, USA). Cells were either untreated or treated with vehicle [1% ethanol (v/v)], paclitaxel (1 μM), combretastatin A-4 (100 nM) or compound 7s (100 nM) for 16 h. Following treatment cells were gently washed in PBS, fixed for 20 min with 4% paraformaldehyde in PBS and permeabilised in 0.5% Triton X-100. Following washes in PBS containing 0.1% Tween (PBST), cells were blocked in 5% bovine serum albumin diluted in PBST. Cells were then incubated with mouse monoclonal anti-α-tubulin−FITC antibody (clone DM1A) (Sigma-Aldrich, 2033 Westport Center Dr, St. Louis, MO, USA) (1:100) for 2 h at room temperature. Following washes in PBST, cells were incubated with Alexa Fluor 488 dye (1:450) for 1 h at room temperature. Following washes in PBST, the cells were mounted in Ultra Cruz Mounting Media (Santa Cruz Biotechnology Inc., 10410 Finnell Street, Dallas, TX, USA) containing 4,6-diamino-2-phenolindol dihydrochloride (DAPI). Images were captured by Leica SP8 confocal microscopy with Leica application suite X software (Leica Microsystems CMS GmbH Am Friedensplatz 3 D-68165 Mannheim, Germany). All images in each experiment were collected on the same day using identical parameters. Experiments were performed on three independent occasions.

Hs578Ts(i)8 cells = assay: Antiproliferative activity in invasive Hs578Ts(i)8 cells; type: cell-based
[5] = test system: colchicine-binding site of tubulin; assay: Colchicine-binding site assay (EBI cross-linking, Western blot) in MCF-7 cells; type: cell-based, human; settings: 10 μM for 2 h, then EBI 100 μM for 1.5 h
Experimental: MCF-7 cells were seeded at a density of 5 × 10^4 cells/well in 6-well plates and incubated overnight. Cells were treated with vehicle control [ethanol (0.1% v/v)] or compound 7s (10 μM) for 2 h. After this time, selected wells were treated with N,N′-ethylene-bis(iodoacetamide)(EBI) (100 μM) (Santa Cruz Biotechnology Inc. 10410 Finnell Street, Dallas, Texas, USA) for 1.5 h. Following treatment, cells were twice washed with ice-cold PBS and lysed by addition of Laemmli buffer. Samples were separated by SDS-PAGE, trasnsferred to polyvinylidene difluoride membranes and probed with β-tubulin antibodies (Sigma-Aldrich, 2033 Westport Center Dr, St. Louis, MO, USA).

NCI-H23 = assay: NCI60 screen (SRB), Non-Small Cell Lung Cancer; type: cell-based; settings: Homo sapiens
A549/ATCC = assay: NCI60 screen (SRB), Non-Small Cell Lung Cancer; type: cell-based; settings: Homo sapiens

Row | Structure (SMILES) | IC50 ([1]; triple-negative Hs578T cells, read-out: IC50) | IC50 (K562) | IC50 [2] | % Viable cells at IC50 [2] | viability at 72 h, 10 μM ([3]; 10 μM, 25,000 cells/mL) | viability at 72 h, 10 μM ([3]; 10 μM, 50,000 cells/mL) | viability at 72 h ([3]; 25,000 cells/mL) | viability at 72 h ([3]; 50,000 cells/mL) | IC50 (HL-60) | effect on microtubule network [4] | IC50 (Hs578Ts(i)8 cells; invasive Hs578Ts(i)8 cells, read-out: IC50) | β-tubulin-EBI adduct formation [5] | IC50 [1] | GI50 (NCI-H23) | GI50 (A549/ATCC) | IC50 (Hs578Ts(i)8 cells) | cytotoxicity against murine mammary epithelial cells [2]
1 | COc1ccc(/C=C\c2cc(OC)c(OC)c(OC)c2)cc1O [CA-4, Combretastatin A-4, reference compound] | 8 nM | 4 nM | > 10 µM | 73.6% | 58% | 75% | 74% | 92.1% | 4 nM | complete loss of microtubule formation | 20 nM | EBI adduct formation is inhibited | – | – | – | – | –
2 | C=CC1C(=O)N(c2cc(OC)c(OC)c(OC)c2)C1c1ccc(OC)cc1 (centres unmarked) [Compound 7h, 4-(4-Methoxyphenyl)-1-(3,4,5-trimethoxyphenyl)-3-vinylazetidin-2-one] | – | – | – | – | – | – | – | – | – | – | – | – | 31 nM | 24.5 nM | 41.3 nM | 76 nM | –
3 | C=CC1C(=O)N(c2cc(OC)c(OC)c(OC)c2)C1c1ccc(OC)c(O)c1 (centres unmarked) [Compound 7s, 4-[3-Hydroxy-4-methoxyphenyl]-1-(3,4,5-trimethoxyphenyl)-3-vinylazetidin-2-one] | – | 26 nM | > 10 µM | 93.1% | 60% | 73.3% | 93% | > 90% | 17 nM | complete loss of microtubule formation | – | EBI adduct formation is inhibited | – | – | – | – | minimal cytotoxicity
4 | C=CC1C(=O)N(c2cc(OC)c(OC)c(OC)c2)C1c1ccc(OC)c(N)c1 (centres unmarked) [Compound 7t, 4-(3-Amino-4-methoxyphenyl)-1-(3,4,5-trimethoxyphenyl)-3-vinylazetidin-2-one] | – | – | – | – | – | – | – | – | – | – | – | – | – | 38.7 nM | 39.2 nM | – | –
